Assay results published in US10131652B2, “Pyrimidinyloxy benzene derivatives as herbicides” (E. I. DU PONT DE NEMOURS AND COMPANY, priority 2014, dated 2018).

Assays:
Type in all cases: in vivo
[1] = test system: wheat (Triticum aestivum); experiment: Test B pre-/postemergence plant response; details: 0 to 100 scale, 0 no effect, 100 complete control
Summary of the method: (§1)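 Greenhouse pots, loam/sand soil; compound formulated with surfactant in non-phytotoxic solvent. Preemergence soil spray and postemergence spray at 1–2 leaf stage run simultaneously. Visual injury, 0–100, about 10 days post-treatment.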

[2] = test system: barnyardgrass (Echinochloa crus-galli); experiment: Test B pre-/postemergence plant response
Summary of the method: as §1

[3] = test system: pigweed (Amaranthus retroflexus); experiment: Test B pre-/postemergence plant response
Summary of the method: as §1

corn (Zea mays) [4] = experiment: Test B pre-/postemergence plant response; details: 0 to 100 scale, 0 no effect, 100 complete control
Summary of the method: as §1

[5] = test system: giant foxtail (Setaria faberii); experiment: Test B pre-/postemergence plant response
Summary of the method: as §1

[6] = test system: ragweed (common ragweed, Ambrosia elatior); experiment: Test D pre-/postemergence plant response
From the text: (§2) Seeds of plant species selected from blackgrass (Alopecurus myosuroides), Italian ryegrass (Lolium multiflorum), winter wheat (Triticum aestivum), galium (catchweed bedstraw, Galium aparine), corn (Zea mays), large (Lg) crabgrass (Digitaria sanguinalis), giant foxtail (Setaria faberii), johnsongrass (Sorghum halepense), lambsquarters (Chenopodium album), morningglory (Ipomoea coccinea), yellow nutsedge (Cyperus esculentus), pigweed (Amaranthus retroflexus), ragweed (common ragweed, Ambrosia elatior), soybean (Glycine max), bamyardgrass (Echinochloa crus-galli), oilseed rape (Brassica napus), waterhemp (common waterhemp, Amaranthus rudis), and velvetleaf (Abutilon theophrasti) were planted into a blend of loam soil and sand and treated preemergence with test chemicals formulated in a non-phytotoxic solvent mixture which included a surfactant. At the same time, plants selected from these crop and weed species and also kochia (Kochia scoparia), wild oat (Avena fatua), and chickweed (common chickweed, Stellaria media) were planted in pots containing Redi-Earth® planting medium (Scotts Company, 14111 Scottslawn Road, Marysville, Ohio 43041) comprising spaghnum peat moss, vermiculite, wetting agent and starter nutrients and treated with postemergence applications of test chemicals formulated in the same manner. Plants ranged in height from 2 to 18 cm (1- to 4-leaf stage) for postemergence treatments. Treated plants and controls were maintained in a greenhouse for 13 to 15 days, after which time all species were compared to controls and visually evaluated. Plant response ratings, summarized in Table D, are based on a scale of 0 to 100 where 0 is no effect and 100 is complete control. A dash (-) response means no test result.

[7] = test system: lambsquarters (Chenopodium album); experiment: Test D pre-/postemergence plant response
From the text: as §2

[8] = test system: Italian ryegrass (Lolium multiflorum); experiment: Test D pre-/postemergence plant response
From the text: as §2

[9] = test system: galium (catchweed bedstraw, Galium aparine); experiment: Test D pre-/postemergence plant response
From the text: as §2

[10] = test system: barnyardgrass (Echinochloa crus-galli); experiment: Test D pre-/postemergence plant response
From the text: as §2

[11] = test system: blackgrass (Alopecurus myosuroides); experiment: Test D pre-/postemergence plant response
From the text: as §2

[12] = test system: waterhemp (common waterhemp, Amaranthus rudis); experiment: Test D pre-/postemergence plant response
From the text: as §2

[13] = test system: morningglory (Ipomoea coccinea); experiment: Test D pre-/postemergence plant response
From the text: as §2

[14] = test system: pigweed (Amaranthus retroflexus); experiment: Test D pre-/postemergence plant response
From the text: as §2

corn (Zea mays) [15] = experiment: Test D pre-/postemergence plant response
From the text: as §2

[16] = test system: giant foxtail (Setaria faberii); experiment: Test D pre-/postemergence plant response
From the text: as §2

[17] = 31 g ai/ha, Postemergence, 0 to 100 scale, 0 no effect, 100 complete control
[18] = 31 g ai/ha, Preemergence, 0 to 100 scale where 0 is no effect and 100 is complete control
[19] = 125 g ai/ha, postemergence, 0 to 100 scale, 0 no effect, 100 complete control
[20] = Preemergence, 125 g ai/ha, 0 to 100 scale where 0 is no effect and 100 is complete control
[21] = Postemergence, 16 g ai/ha, scale 0 to 100 (0 no effect, 100 complete control)
[22] = Postemergence, 31 g ai/ha, scale 0 to 100 (0 no effect, 100 complete control)
[23] = Postemergence, 62 g ai/ha, scale 0 to 100, 0 no effect, 100 complete control
[24] = Postemergence, 125 g ai/ha, scale 0 to 100, 0 no effect, 100 complete control
[25] = Preemergence, 16 g ai/ha, scale 0 to 100 (0 no effect, 100 complete control)
[26] = Preemergence, 31 g ai/ha, scale 0 to 100 (0 no effect, 100 complete control)
[27] = Preemergence, 62 g ai/ha, scale 0 to 100 (0 no effect, 100 complete control)

## FC(F)c1cc(-c2c(Cl)cccc2Oc2ncc(Cl)cn2)on1 [Compound 120]
[1]; 31 g ai/ha, Postemergence
  Plant response rating, Wheat: 0
[1]; 125 g ai/ha, postemergence
  Plant response rating, Wheat: 40
[2]; [17]
  Plant response rating, Barnyardgrass: 50
[2]; [18]
  Plant response rating, Barnyardgrass: 90
[2]; [19]
  Plant response rating, Barnyardgrass: 90
[2]; [20]
  Plant response rating, Barnyardgrass: 100
[3]; [17]
  Plant response rating, Pigweed: 100
[3]; [18]
  Plant response rating, Pigweed: 100
[3]; [19]
  Plant response rating, Pigweed: 100
Corn (Zea mays) [4]; 31 g ai/ha, Postemergence
  Plant response rating, Corn: 30
Corn (Zea mays) [4]; 125 g ai/ha, postemergence
  Plant response rating, Corn: 40
[5]; [17]
  Plant response rating, Foxtail, Giant: 40
[5]; [18]
  Plant response rating, Foxtail, Giant: 100
[5]; [19]
  Plant response rating, Foxtail, Giant: 90
[5]; [20]
  Plant response rating, Foxtail, Giant: 100
[6]; [21]
  Ragweed plant response rating: 40
[6]; [22]
  Ragweed plant response rating: 55
[6]; [23]
  Plant response rating, Ragweed: 70
[6]; [24]
  Plant response rating, Ragweed: 85
[6]; Preemergence, 125 g ai/ha
  Plant response rating (scale 0 to 100), Ragweed: 100
[6]; [25]
  Plant response rating, Ragweed: 0
[6]; [26]
  Plant response rating, Ragweed: 0
[6]; [27]
  Plant response rating, Ragweed: 25
[7]; [21]
  Lambsquarters plant response rating: 100
[7]; [22]
  Lambsquarters plant response rating: 100
[7]; [23]
  Plant response rating, Lambsquarters: 100
[7]; [24]
  Plant response rating, Lambsquarters: 100
[7]; Preemergence, 125 g ai/ha
  Plant response rating (scale 0 to 100), Lambsquarters: 100
[7]; [25]
  Plant response rating, Lambsquarters: 70
[7]; [26]
  Plant response rating, Lambsquarters: 95
[7]; [27]
  Plant response rating, Lambsquarters: 90
[8]; [21]
  Ryegrass, Italian plant response rating: 5
[8]; [22]
  Ryegrass, Italian plant response rating: 5
[8]; [23]
  Plant response rating, Ryegrass, Italian: 10
[8]; [24]
  Plant response rating, Ryegrass, Italian: 50
[8]; Preemergence, 125 g ai/ha
  Plant response rating (scale 0 to 100), Ryegrass, Italian: 90
[8]; [25]
  Plant response rating, Ryegrass, Italian: 5
[8]; [26]
  Plant response rating, Ryegrass, Italian: 35
[8]; [27]
  Plant response rating, Ryegrass, Italian: 90
[9]; [21]
  Galium plant response rating: 98
[9]; [22]
  Galium plant response rating: 98
[9]; [23]
  Plant response rating, Galium: 100
[9]; [24]
  Plant response rating, Galium: 100
[9]; Preemergence, 125 g ai/ha
  Plant response rating (scale 0 to 100), Galium: 90
[9]; [25]
  Plant response rating, Galium: 90
[9]; [26]
  Plant response rating, Galium: 98
[9]; [27]
  Plant response rating, Galium: 90
[10]; [21]
  Barnyardgrass plant response rating: 10
[10]; [22]
  Barnyardgrass plant response rating: 15
[10]; [23]
  Plant response rating, Barnyardgrass: 25
[10]; [24]
  Plant response rating, Barnyardgrass: 40
[10]; Preemergence, 62 g ai/ha
  Plant response rating (scale 0 to 100), Barnyardgrass: 90
[10]; Preemergence, 125 g ai/ha
  Plant response rating (scale 0 to 100), Barnyardgrass: 100
[10]; [25]
  Plant response rating, Barnyardgrass: 25
[10]; [26]
  Plant response rating, Barnyardgrass: 75
[11]; [21]
  Blackgrass plant response rating: 20
[11]; [22]
  Blackgrass plant response rating: 35
[11]; [23]
  Plant response rating, Blackgrass: 60
[11]; [24]
  Plant response rating, Blackgrass: 55
[11]; Preemergence, 125 g ai/ha
  Plant response rating (scale 0 to 100), Blackgrass: 90
[11]; [25]
  Plant response rating, Blackgrass: 70
[11]; [26]
  Plant response rating, Blackgrass: 60
[11]; [27]
  Plant response rating, Blackgrass: 90
[12]; [21]
  Waterhemp plant response rating: 90
[12]; [22]
  Waterhemp plant response rating: 100
[12]; [23]
  Plant response rating, Waterhemp: 100
[12]; [24]
  Plant response rating, Waterhemp: 100
[12]; Preemergence, 125 g ai/ha
  Plant response rating (scale 0 to 100), Waterhemp: 100
[12]; [25]
  Plant response rating, Waterhemp: 100
[12]; [26]
  Plant response rating, Waterhemp: 100
[12]; [27]
  Plant response rating, Waterhemp: 100
[13]; [21]
  Morningglory plant response rating: 85
[13]; [22]
  Morningglory plant response rating: 98
[13]; [23]
  Plant response rating, Morningglory: 80
[13]; [24]
  Plant response rating, Morningglory: 100
[13]; Preemergence, 125 g ai/ha
  Plant response rating (scale 0 to 100), Morningglory: 75
[13]; [25]
  Plant response rating, Morningglory: 0
[13]; [26]
  Plant response rating, Morningglory: 30
[13]; [27]
  Plant response rating, Morningglory: 60
[14]; [21]
  Pigweed plant response rating: 98
[14]; [22]
  Pigweed plant response rating: 100
[14]; [23]
  Plant response rating, Pigweed: 100
[14]; [24]
  Plant response rating, Pigweed: 100
[14]; Preemergence, 125 g ai/ha
  Plant response rating (scale 0 to 100), Pigweed: 100
[14]; [25]
  Plant response rating, Pigweed: 100
[14]; [26]
  Plant response rating, Pigweed: 100
[14]; [27]
  Plant response rating, Pigweed: 100
Corn (Zea mays) [15]; [21]
  Corn plant response rating: 15
Corn (Zea mays) [15]; [22]
  Corn plant response rating: 15
Corn (Zea mays) [15]; [23]
  Plant response rating, Corn: 10
Corn (Zea mays) [15]; [24]
  Plant response rating, Corn: 15
Corn (Zea mays) [15]; Preemergence, 125 g ai/ha
  Plant response rating (scale 0 to 100), Corn: 75
Corn (Zea mays) [15]; [25]
  Plant response rating, Corn: 0
Corn (Zea mays) [15]; [26]
  Plant response rating, Corn: 35
Corn (Zea mays) [15]; [27]
  Plant response rating, Corn: 25
[16]; [21]
  Foxtail, Giant plant response rating: 10
[16]; [22]
  Foxtail, Giant plant response rating: 10
[16]; [23]
  Plant response rating, Foxtail, Giant: 15
[16]; [24]
  Plant response rating, Foxtail, Giant: 25
[16]; Preemergence, 125 g ai/ha
  Plant response rating (scale 0 to 100), Foxtail, Giant: 100
[16]; [25]
  Plant response rating, Foxtail, Giant: 95
[16]; [26]
  Plant response rating, Foxtail, Giant: 98
[16]; [27]
  Plant response rating, Foxtail, Giant: 98
